Test results: patent US6140311A, “Therapy by intrathecal administration of antitumor agent FUDR” (priority 1997, dated 2000)

Legend:
[1] = system: meningeal dissemination of malignant tumours; experiment: Clinical results of intrathecal chemotherapy with FUDR via Ommaya reservoir;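 note: 13 patients with meningeal spread from various primary tumours, treatment length adjusted to disease symptoms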
Procedure: The drug was given at a dose of 1 to 10 μg/body a day, three times a week. The period of administration was varied from 3 to 8 weeks in accordance with the symptoms of the disease.

203 glioma cells = experiment: In vivo antitumor effect of intrathecal FUDR in mouse meningeal carcinomatosis model; parameters: species or system C57/BL6 mice; conditions: daily for 5 consecutive days, control group all dead
Procedure: Six-week-old C57/BL6 mice divided into groups of 22 or 23 were used to prepare models of meningeal carcinomatosis by directly puncturing the cisterna magna with a 26-gauge needle under anesthesia with ethyl ether and injecting transplantable 203 glioma cells (5×10^5 cells/0.05 ml). The mice were given a specified dose of FUDR by intrathecal injection (0, 25, 50, 100 or 250 μg/0.05 ml/head) daily for 5 consecutive days following the day of transplant.

[2] = Toxicity of intrathecal FUDR in normal mice (body weight, symptoms, brain histology); format: in vivo, C57/BL6 mice; conditions: for body weight variation: days 0, 2, 4, 6
Procedure: Normal C57/BL6 mice divided into groups of 20 were given FUDR by intrathecal injection at a specified dose (0, 10, 25, 50 or 100 μg/0.05ml/head) on the day of start of the experiment, 2 days, 4 days and 6 days after the start. Two months after the completion of administration of the drug, the mice were all sacrificed, and brain tissues were collected, followed by hematoxylin & eosin staining and Kluver Barrera staining for histological investigation.

meningeal carcinomatosis = conditions: intrathecal MTX; cited from earlier work
[3] = 1 to 10 μg/body a day intrathecal, three times a week, 3 to 8 weeks
[4] = per patient, before→after, CSF obtained by anterial horn of lateral ventricle
[5] = per patient, 1 to 10 μg/body a day intrathecal, three times a week, 3 to 8 weeks
[6] = high-dose group 100 μg/0.05 ml intrathecal

Compound: O=c1[nH]c(=O)n([C@H]2C[C@H](O)[C@@H](CO)O2)cc1F [FUDR, 5-fluoro-deoxyuridine]
- efficacy, summary of 13 patients [1, 3]: diminutions of tumor marker, CSF cells and protein in CSF
- side effects, summary of 13 patients [1, 3]: none of side effects such as toxicity to the digestive tracts, neurotoxicity, myelosuppression, and dysfunction of the liver and kidney
- Cell numbers Ventricular CSF [1, 4]: 50.fwdarw
- Protein Ventricular CSF [1, 4]: 147.fwdar
- Cell numbers Spinal CSF ([1]; per patient, before→after, CSF obtained by lumbar puncture): 144.fwdar
- Response on CSF findings [1, 5]: No and Response and No Response
- Side effects [1, 5]: None
- survivors on day 14 postimplantation (203 glioma cells; 100 μg/0.05 ml/head intrathecal): 21 survivors among 22 animals
- survivors on day 14 postimplantation (203 glioma cells; 250 μg/0.05 ml/head intrathecal): 21 survivors among 22 animals
- neurotic manifestation during and after administration ([2]; all dose groups 10-100 μg/0.05 ml intrathecal): none of the mice developed neurotic manifestation
- histological changes in cranial nerve tissues (hematoxylin & eosin, Kluver Barrera staining) ([2]; high-dose (100 μg/0.05 ml) group, two months after completion of administration): none of the mice exhibited abnormalities in the cranial nerve tissues
- side effects such as diarrhea [2, 6]: free of side effects such as frequent diarrhea
- body weight variation [2, 6]: transient weight decrease
- body weight variation ([2]; medium-dose group 50 μg/0.05 ml intrathecal): no weight decrease whatever
- body weight variation ([2]; small-dose group 10 μg/0.05 ml intrathecal): no weight decrease whatever
- body weight variation ([2]; small-dose group 25 μg/0.05 ml intrathecal): no weight decrease whatever

Compound: CN(Cc1cnc2nc(N)nc(N)c2n1)c1ccc(C(=O)N[C@@H](CCC(=O)O)C(=O)O)cc1 [MTX, methotrexate]
- side effects limiting the dose (meningeal carcinomatosis): Acute neurotoxicity and retarded necrotizing encephalopathy
